Where “and” joins values, the source holds several entries; their conditions need not be identical. Equal entries are not always repeated.
Tests used:
[1] = system: human pancreatic cancer Capan-1 subcutaneous xenograft model; experiment: In-depth efficacy in olaparib-resistant pancreatic cancer Capan-1 CDX model (3.2); type: in vivo, mouse; details: for CR Rate: complete response, animals/group
Procedure: Protocol: Nude BALB/c mice were subcutaneously inoculated with human pancreatic cancer Capan-1 cells, establishing a human pancreatic cancer subcutaneous xenograft model. The mice were divided into 7 groups, 6 in each group: 100 mg/kg of the test drug olaparib as a monotherapy (Group 2); 50 mg/kg of TH-302 as a monotherapy (Group 3, QD); 100 mg/kg of TH-302 as a monotherapy (Group 4); 50 mg/kg of TH-302 as a monotherapy (Group 5, QW); 25 mg/kg of TH-302 as a monotherapy (Group 6); 25 mg/kg TH-302 in combination therapy with 100 mg/kg olaparib (Group 7); and 10% anhydrous ethanol+10% polyoxyethylene (35) castor oil+80% glucose injection solution D5W (pH 7.4) as a vehicle control (Group 1). The vehicle control group and the TH-302 test groups were all administered through tail vein injection. The 50 mg/kg TH-302 monotherapy group (Group 3, QD) was administered once daily for 3 consecutive days. After rest for 4 days and two weeks, the mice were again administered daily for another 3 consecutive days. TH-302 in all the 100 mg/kg (Group 4, QW), 50 mg/kg (Group 5, QW) and 25 mg/kg (Group 6, QW) TH-302 monotherapy groups and 25 mg/kg TH-302+100 mg/kg olaparib combination therapy group (Group 7) was administered once weekly for a total of three weeks. The test drug olaparib in all the groups was orally and intragastrically administered once daily for totally 30 days. Routes of administration, doses and regimens for the human pancreatic cancer Capan-1 animal model are specifically summarized in Table 12.
Tumor growth of the treatment and control groups on different days in the experiment were recorded and shown in Table 13, and corresponding tumor volume growth curves of the mice in respective groups are shown in FIG. 7. Efficacy evaluation was conducted based on relative tumor proliferation rates and relative tumor growth inhibition rates, and the results of efficacy analysis are summarized in Table 14. Body weight changes of the treatment and control groups after administration were recorded to investigate safety of the groups in the human pancreatic cancer Capan-1 subcutaneous model. Body weight change rates of the mice on Day 43 are shown in Table 15, and curves showing body weights of the treatment groups over time are plotted in FIG. 8.
A relative tumor proliferation rate, denoted as T/C %, is calculated as a relative tumor volume or a tumor weight of a treatment group as a percentage of that of the control group at a certain point of time according to:
T/C %=TRTV/CRTV×100% (where TRTV denotes average RTV of the treatment group; CRTV represents average RTV of the vehicle control group; and RTV=Vt/V0, where V0 is a tumor volume of an animal at the time of randomization, and Vt is a tumor volume of the animal after treatment); or
T/C %=TTW/CTW×100% (where TTW is an average tumor weight of the treatment group at the end of the experiment, and CTW is an average tumor weight of the vehicle control group at the end of the experiment).
A relative tumor growth inhibition rate, denoted as TGI (%), is calculated according to: TGI %=(1−T/C)×100% (where T and C are relative tumor volumes (RTV) or tumor weights (TW) of a treatment group and the control group, respectively, at a particular point of time).

[2] = Safety (body weight) in LU6429 PDX model; type: in vivo, mouse
Procedure: Protocol: Nude female Balb/c mice were subcutaneously inoculated with HuPrime® lung cancer LU6429 tumor tissue, establishing a human lung cancer subcutaneous xenograft tumor model. The mice were divided into 6 groups, 6 in each group: 50 mg/kg of the test drug olaparib as a monotherapy (Group 02); 80 mg/kg TH-302 as a monotherapy (Group 03); 40 mg/kg TH-302 as a monotherapy (Group 04); 20 mg/kg TH-302 as a monotherapy (Group 05); 40 mg/kg TH-302 in combination therapy with 50 mg/kg olaparib (Group 06); and a glucose injection solution as a vehicle control (Group 01). The vehicle control group and the TH-302 treatment groups were all administered through tail vein, once weekly for a total of 3 weeks. Olaparib was intragastrically administered once daily for totally 28 days. Routes of administration, doses and regimens for the HuPrime® lung cancer LU6429 animal model are specifically summarized in Table 16.
Tumor growth of the treatment and control groups on different days in the experiment were recorded and shown in Table 17, and corresponding tumor volume growth curves of the mice in respective groups are shown in FIG. 9. Efficacy evaluation was carried out based on relative tumor proliferation rates and relative tumor growth inhibition rates, and the results of efficacy analysis are summarized in Table 18. Body weight changes of the treatment and control groups after administration were recorded to investigate safety of the groups in the HuPrime® lung cancer LU6429 subcutaneous model. Body weight change rates of the mice on Day 25 are shown in Table 19, and curves showing body weights of the treatment groups over time are plotted in FIG. 10.

[3] = Group 3: 50 mg/kg i.v. QD, Day 43
[4] = Group 4: 100 mg/kg i.v. QW×3, Day 43
[5] = Group 5: 50 mg/kg i.v. QW×3, Day 43
[6] = Group 6: 25 mg/kg i.v. QW×3, Day 43
[7] = Group 3: 80 mg/kg i.v. QW×3, Day 25
[8] = Group 4: 40 mg/kg i.v. QW×3, Day 25
[9] = Group 5: 20 mg/kg i.v. QW×3, Day 25

Cn1c(COP(=O)(NCCBr)NCCBr)cnc1[N+](=O)[O-] [TH-302, evofosfamide]
Tumor volume ([1]; Group 3: 50 mg/kg i.v. QD, Day 9): 194.10 mm^3 | Tumor volume ([1]; Group 3: 50 mg/kg i.v. QD, Day 13): 138.02 mm^3 | Tumor volume ([1]; Group 3: 50 mg/kg i.v. QD, Day 16): 124.61 mm^3 | Tumor volume ([1]; Group 3: 50 mg/kg i.v. QD, Day 20): 105.24 mm^3 | Tumor volume ([1]; Group 3: 50 mg/kg i.v. QD, Day 23): 107.93 mm^3 | Tumor volume ([1]; Group 3: 50 mg/kg i.v. QD, Day 27): 110.53 mm^3 | Tumor volume ([1]; Group 3: 50 mg/kg i.v. QD, Day 30): 123.45 mm^3 | Tumor volume ([1]; Group 3: 50 mg/kg i.v. QD, Day 34): 101.47 mm^3 | Tumor volume ([1]; Group 3: 50 mg/kg i.v. QD, Day 37): 114.69 mm^3 | Tumor volume ([1]; Group 3: 50 mg/kg i.v. QD, Day 41): 134.32 mm^3 | Relative Tumor Volume (x ± S) [1, 3]: 0.99 ± 0.22 | T/C (%) [1, 3]: 10.83% | TGI (%) [1, 3]: 89.17% | Tumor volume ([1]; Group 3: 50 mg/kg i.v. QD, Day 43, 50 mg/kg): 146.99 mm^3 and 146.99 ± 37.96 mm^3 | CR Rate [1, 3]: 0/6 | Tumor volume ([1]; Group 3: 50 mg/kg i.v. QD×3, 4 days off, 2 weeks off, QD×3, Day 6): 146.76 mm^3 | Tumor volume ([1]; Group 4: 100 mg/kg i.v. QW×3, Day 6): 146.05 mm^3 | Tumor volume ([1]; Group 4: 100 mg/kg i.v. QW×3, Day 9): 193.80 mm^3 | Tumor volume ([1]; Group 4: 100 mg/kg i.v. QW×3, Day 13): 123.87 mm^3 | Tumor volume ([1]; Group 4: 100 mg/kg i.v. QW×3, Day 16): 112.22 mm^3 | Tumor volume ([1]; Group 4: 100 mg/kg i.v. QW×3, Day 20): 85.08 mm^3 | Tumor volume ([1]; Group 4: 100 mg/kg i.v. QW×3, Day 23): 59.95 mm^3 | Tumor volume ([1]; Group 4: 100 mg/kg i.v. QW×3, Day 27): 49.03 mm^3 | Tumor volume ([1]; Group 4: 100 mg/kg i.v. QW×3, Day 30): 48.35 mm^3 | Tumor volume ([1]; Group 4: 100 mg/kg i.v. QW×3, Day 34): 65.87 mm^3 | Tumor volume ([1]; Group 4: 100 mg/kg i.v. QW×3, Day 37): 75.54 mm^3 | Tumor volume ([1]; Group 4: 100 mg/kg i.v. QW×3, Day 41): 106.10 mm^3 | Relative Tumor Volume (x ± S) [1, 4]: 0.83 ± 0.17 | T/C (%) [1, 4]: 9.11% | TGI (%) [1, 4]: 90.89% | Tumor volume ([1]; Group 4: 100 mg/kg i.v. QW×3, Day 43, 100 mg/kg): 124.68 mm^3 and 124.68 ± 31.35 mm^3 | CR Rate [1, 4]: 0/6 | Tumor volume ([1]; Group 5: 50 mg/kg i.v. QW×3, Day 6): 147.11 mm^3 | Tumor volume ([1]; Group 5: 50 mg/kg i.v. QW×3, Day 9): 182.60 mm^3 | Tumor volume ([1]; Group 5: 50 mg/kg i.v. QW×3, Day 13): 178.72 mm^3 | Tumor volume ([1]; Group 5: 50 mg/kg i.v. QW×3, Day 16): 181.66 mm^3 | Tumor volume ([1]; Group 5: 50 mg/kg i.v. QW×3, Day 20): 181.56 mm^3 | Tumor volume ([1]; Group 5: 50 mg/kg i.v. QW×3, Day 23): 156.49 mm^3 | Tumor volume ([1]; Group 5: 50 mg/kg i.v. QW×3, Day 27): 152.57 mm^3 | Tumor volume ([1]; Group 5: 50 mg/kg i.v. QW×3, Day 30): 152.13 mm^3 | Tumor volume ([1]; Group 5: 50 mg/kg i.v. QW×3, Day 34): 176.07 mm^3 | Tumor volume ([1]; Group 5: 50 mg/kg i.v. QW×3, Day 37): 198.42 mm^3 | Tumor volume ([1]; Group 5: 50 mg/kg i.v. QW×3, Day 41): 221.92 mm^3 | Complete tumor inhibition rate [1, 5]: 33.3% | Relative Tumor Volume (x ± S) [1, 5]: 1.81 ± 0.64 | T/C (%) [1, 5]: 19.82% | TGI (%) [1, 5]: 80.18% | Tumor volume ([1]; Group 5: 50 mg/kg i.v. QW×3, Day 43, 50 mg/kg): 263.45 mm^3 and 263.45 ± 86.54 mm^3 | CR Rate [1, 5]: 2/6 | Tumor volume ([1]; Group 6: 25 mg/kg i.v. QW×3, Day 6): 146.81 mm^3 | Tumor volume ([1]; Group 6: 25 mg/kg i.v. QW×3, Day 9): 213.60 mm^3 | Tumor volume ([1]; Group 6: 25 mg/kg i.v. QW×3, Day 13): 233.94 mm^3 | Tumor volume ([1]; Group 6: 25 mg/kg i.v. QW×3, Day 16): 277.57 mm^3 | Tumor volume ([1]; Group 6: 25 mg/kg i.v. QW×3, Day 20): 295.46 mm^3 | Tumor volume ([1]; Group 6: 25 mg/kg i.v. QW×3, Day 23): 328.33 mm^3 | Tumor volume ([1]; Group 6: 25 mg/kg i.v. QW×3, Day 27): 373.13 mm^3 | Tumor volume ([1]; Group 6: 25 mg/kg i.v. QW×3, Day 30): 454.44 mm^3 | Tumor volume ([1]; Group 6: 25 mg/kg i.v. QW×3, Day 34): 705.45 mm^3 | Tumor volume ([1]; Group 6: 25 mg/kg i.v. QW×3, Day 37): 886.42 mm^3 | Tumor volume ([1]; Group 6: 25 mg/kg i.v. QW×3, Day 41): 1344.26 mm^3 | Relative Tumor Volume (x ± S) [1, 6]: 11.12 ± 3.31 | T/C (%) [1, 6]: 121.59% | TGI (%) [1, 6]: −21.59% | Tumor volume ([1]; Group 6: 25 mg/kg i.v. QW×3, Day 43, 25 mg/kg): 1521.33 mm^3 and 1521.33 ± 349.46 mm^3 | CR Rate [1, 6]: 0/6 | Average Body Weight g (x ± S) ([2]; Group 3: 80 mg/kg i.v. QW×3, Day 0): 21.5 ± 0.3 g | Average Body Weight g (x ± S) [2, 7]: 23.2 ± 0.2 g | Body Weight Change Rate (%) [2, 7]: 7.94% ± 0.76% | Average Body Weight g (x ± S) ([2]; Group 4: 40 mg/kg i.v. QW×3, Day 0): 21.6 ± 0.2 g | Average Body Weight g (x ± S) [2, 8]: 23.7 ± 0.4 g | Body Weight Change Rate (%) [2, 8]: 10.01% ± 1.19% | Average Body Weight g (x ± S) ([2]; Group 5: 20 mg/kg i.v. QW×3, Day 0): 20.8 ± 0.2 g | Average Body Weight g (x ± S) [2, 9]: 23.2 ± 0.4 g | Body Weight Change Rate (%) [2, 9]: 11.72% ± 1.73%

Reference: patent publication US20250387419A1, “PARP INHIBITOR-RESISTANT PATIENT TREATED WITH TH-302” (ASCENTAWITS PHARMACEUTICALS, LTD., priority 2021, published 2025)
